Here are results for 19 compounds from patent publication US10308644B2, “Heterocyclic compounds as immunomodulators” (Incyte Corporation, priority 2016, dated 2019).

The term IC50 denotes the concentration that gives 50% inhibition.

For this assay, the target named is PD-1/PD-L1 (Homo sapiens (Human), UniProt Q9NZQ7). The assay can be described thus: PD-1/PD-L1 Homogeneous Time-Resolved Fluorescence (HTRF) Binding Assay. To be noted: recombinant human PD-1 (3 nM) and PD-L1 (10 nM), 25° C., PBS pH 7.4. In short, it runs like this: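 Fc-tagged human PD-1 (25-167, 3 nM) and His-tagged PD-L1 (19-238, 10 nM) preincubated with inhibitor 40 min in PBS pH 7.4, 0.05% Tween-20, 0.1% BSA, 1% DMSO, 25 °C. Binding detected by HTRF (Eu anti-IgG/APC anti-His, 665/620 nm) after 60 min; IC50 from percent control activity.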
For orientation: TR-FRET usually uses a lanthanide donor and a delayed reading to cut background.

Molecules are shown by their SMILES.

Chain of PD-1/PD-L1 (Q9NZQ7 19-238): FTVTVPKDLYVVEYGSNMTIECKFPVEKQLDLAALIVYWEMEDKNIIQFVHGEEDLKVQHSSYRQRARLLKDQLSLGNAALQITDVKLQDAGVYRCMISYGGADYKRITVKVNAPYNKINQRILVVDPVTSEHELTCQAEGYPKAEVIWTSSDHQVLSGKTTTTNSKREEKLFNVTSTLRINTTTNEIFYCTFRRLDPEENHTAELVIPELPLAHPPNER

With `Cc1c(-c2nc3cc(CN4CC[C@@](C)(C(=O)O)C4)cc(C#N)c3o2)cccc1-c1cccc(-c2nc3c(s2)CN(C(=O)CN(C)CCO)C3)c1C` [Example 224, (R)-1-((7-cyano-2-(3′-(5-(2-((2-hydroxyethyl) (methyl)amino)acetyl)-5,6-dihydro-4H-pyrrolo[3,4-d]thiazol-2-yl)-2,2′-dimethylbiphenyl-3-yl)benzo[d]oxazol-5-yl)methyl)-3-methylpyrrolidine-3-carboxylic acid], the IC50 is no more than 10 nM. For the compound `Cc1c(-c2nc3cc(CN4CC[C@@](C)(C(=O)O)C4)cc(C#N)c3o2)cccc1-c1cccc(-c2nc3c(s2)CN(C(=O)CN(C)[C@H](C)CO)C3)c1C` [Example 225, (R)-1-((7-cyano-2-(3′-(5-(2-(((R)-1-hydroxypropan-2-yl)(methyl)amino)acetyl)-5,6-dihydro-4H-pyrrolo[3,4-d]thiazol-2-yl)-2,2′-dimethylbiphenyl-3-yl)benzo[d]oxazol-5-yl)methyl)-3-methylpyrrolidine-3-carboxylic acid], the IC50 is no more than 10 nM. The same measure for `Cc1c(-c2nc3cc(CN4CC[C@@](C)(C(=O)O)C4)cc(C#N)c3o2)cccc1-c1cccc(-c2nc3c(s2)CN(C(=O)CN(C)[C@@H](C)CO)C3)c1C` [Example 226, (R)-1-((7-cyano-2-(3′-(5-(2-(((S)-1-hydroxypropan-2-yl)(methyl)amino)acetyl)-5,6-dihydro-4H-pyrrolo[3,4-d]thiazol-2-yl)-2,2′-dimethylbiphenyl-3-yl)benzo[d]oxazol-5-yl)methyl)-3-methylpyrrolidine-3-carboxylic acid]: no more than 10 nM.

As for `Cc1c(-c2nc3cc(CN4CC[C@@](C)(C(=O)O)C4)cc(C#N)c3o2)cccc1-c1cccc(-c2nc3c(s2)CN(C(=O)CN2CC(O)C2)C3)c1C` [Example 227, (R)-1-((7-cyano-2-(3′-(5-(2-(3-hydroxyazetidin-1-yl)acetyl)-5,6-dihydro-4H-pyrrolo[3,4-d]thiazol-2-yl)-2,2′-dimethylbiphenyl-3-yl)benzo[d]oxazol-5-yl)methyl)-3-methylpyrrolidine-3-carboxylic acid], the half-inhibitory concentration (IC50) is no more than 10 nM. Turning to `Cc1c(-c2nc3cc(CN4CC[C@@](C)(C(=O)O)C4)cc(C#N)c3o2)cccc1-c1cccc(-c2nc3c(s2)CN(C(=O)CN[C@H]2C[C@@H](O)C2)C3)c1C` [Example 228, (R)-1-((7-cyano-2-(3′-(5-(2-(cis-3-hydroxycyclobutylamino)acetyl)-5,6-dihydro-4H-pyrrolo[3,4-d]thiazol-2-yl)-2,2′-dimethylbiphenyl-3-yl)benzo[d]oxazol-5-yl)methyl)-3-methylpyrrolidine-3-carboxylic acid], the 50% inhibitory concentration (IC50) was no more than 10 nM. With `Cc1c(-c2nc3cc(CN4CC[C@@](C)(C(=O)O)C4)cc(C#N)c3o2)cccc1-c1cccc(-c2nc3c(s2)CN(C(=O)CN[C@H]2C[C@H](O)C2)C3)c1C` [Example 229, (R)-1-((7-cyano-2-(3′-(5-(2-(trans-3-hydroxycyclobutylamino)acetyl)-5,6-dihydro-4H-pyrrolo[3,4-d]thiazol-2-yl)-2,2′-dimethylbiphenyl-3-yl)benzo[d]oxazol-5-yl)methyl)-3-methylpyrrolidine-3-carboxylic acid], the IC50 is no more than 10 nM.

As to `Cc1c(-c2nc3cc(CN4CC5(CC(C(=O)O)C5)C4)cc(C#N)c3o2)cccc1-c1cccc(-c2nc3c(s2)CN(C(=O)CN(C)CCO)C3)c1C` [Example 230, 2-((7-cyano-2-(3′-(5-(2-((2-hydroxyethyl)(methyl)amino)acetyl)-5,6-dihydro-4H-pyrrolo[3,4-d]thiazol-2-yl)-2,2′-dimethylbiphenyl-3-yl)benzo[d]oxazol-5-yl)methyl)-2-azaspiro[3.3]heptane-6-carboxylic acid], the half-maximal inhibitory concentration (IC50) is no more than 10 nM. The same measure for `Cc1c(-c2nc3cc(CN4CC5(CC(C(=O)O)C5)C4)cc(C#N)c3o2)cccc1-c1cccc(-c2nc3c(s2)CN(C(=O)CN(C)[C@H](C)CO)C3)c1C` [Example 231, 2-((7-cyano-2-(3′-(5-(2-(((R)-1-hydroxypropan-2-yl)(methyl)amino)acetyl)-5,6-dihydro-4H-pyrrolo[3,4-d]thiazol-2-yl)-2,2′-dimethylbiphenyl-3-yl)benzo[d]oxazol-5-yl)methyl)-2-azaspiro[3.3]heptane-6-carboxylic acid]: no more than 10 nM; for `Cc1c(-c2nc3cc(CN4CC5(CC(C(=O)O)C5)C4)cc(C#N)c3o2)cccc1-c1cccc(-c2nc3c(s2)CN(C(=O)CN(C)[C@@H](C)CO)C3)c1C` [Example 232, 2-((7-cyano-2-(3′-(5-(2-(((S)-1-hydroxypropan-2-yl)(methyl)amino)acetyl)-5,6-dihydro-4H-pyrrolo[3,4-d]thiazol-2-yl)-2,2′-dimethylbiphenyl-3-yl)benzo[d]oxazol-5-yl)methyl)-2-azaspiro[3.3]heptane-6-carboxylic acid]: no more than 10 nM; for `Cc1c(-c2nc3cc(CN4CC5(CC(C(=O)O)C5)C4)cc(C#N)c3o2)cccc1-c1cccc(-c2nc3c(s2)CN(C(=O)CN2CC[C@H](O)C2)C3)c1C` [Example 233, 2-((7-cyano-2-(3′-(5-(2-((S)-3-hydroxypyrrolidin-1-yl)acetyl)-5,6-dihydro-4H-pyrrolo[3,4-d]thiazol-2-yl)-2,2′-dimethylbiphenyl-3-yl)benzo[d]oxazol-5-yl)methyl)-2-azaspiro[3.3]heptane-6-carboxylic acid]: no more than 10 nM. For the compound `Cc1c(-c2nc3cc(CN4CC5(CC(C(=O)O)C5)C4)cc(C#N)c3o2)cccc1-c1cccc(-c2nc3c(s2)CN(C(=O)CN2CC[C@@H](O)C2)C3)c1C` [Example 234, 2-((7-cyano-2-(3′-(5-(2-((R)-3-hydroxypyrrolidin-1-yl)acetyl)-5,6-dihydro-4H-pyrrolo[3,4-d]thiazol-2-yl)-2,2′-dimethylbiphenyl-3-yl)benzo[d]oxazol-5-yl)methyl)-2-azaspiro[3.3]heptane-6-carboxylic acid], the IC50 is no more than 10 nM. With `Cc1c(-c2nc3cc(CN4CC5(C(=O)O)CC4C5)cc(C#N)c3o2)cccc1-c1cccc(-c2nc3c(s2)CN(C(=O)CN(C)C)C3)c1C` [Example 235, 2-((7-cyano-2-(3′-(5-(2-(dimethylamino)acetyl)-5,6-dihydro-4H-pyrrolo[3,4-d]thiazol-2-yl)-2,2′-dimethylbiphenyl-3-yl)benzo[d]oxazol-5-yl)methyl)-2-azabicyclo[2.1.1]hexane-4-carboxylic acid], the concentration for half-maximal inhibition (IC50) was no more than 10 nM. Regarding `Cc1c(-c2nc3cc(CN4CCC(C(=O)O)CC4)cc(C#N)c3o2)cccc1-c1cccc(-c2nc3c(s2)CN(C(=O)CN(C)C)C3)c1C` [Example 236, 1-((7-cyano-2-(3′-(5-(2-(dimethylamino)acetyl)-5,6-dihydro-4H-pyrrolo[3,4-d]thiazol-2-yl)-2,2′-dimethylbiphenyl-3-yl)benzo[d]oxazol-5-yl)methyl)piperidine-4-carboxylic acid], the 50% inhibitory concentration (IC50) is no more than 10 nM.

Regarding `Cc1c(-c2nc3cc(CN4CC5CC4CC5C(=O)O)cc(C#N)c3o2)cccc1-c1cccc(-c2nc3c(s2)CN(C(=O)CN(C)C)C3)c1C` (stereo not shown) [Example 237, 2-((7-cyano-2-(3′-(5-(2-(dimethylamino)acetyl)-5,6-dihydro-4H-pyrrolo[3,4-d]thiazol-2-yl)-2,2′-dimethylbiphenyl-3-yl)benzo[d]oxazol-5-yl)methyl)-2-azabicyclo[2.2.1]heptane-5-carboxylic acid], the IC50 was no more than 10 nM. Consider `Cc1c(-c2nc3cc(CN4CC[C@@H](C(=O)NS(C)(=O)=O)C4)cc(C#N)c3o2)cccc1-c1cccc(-c2nc3c(s2)CN(C(C)C)CC3)c1C` [Example 238, (R)-1-((7-cyano-2-(3′-(5-isopropyl-4,5,6,7-tetrahydrothiazolo[5,4-c]pyridin-2-yl)-2,2′-dimethyl-[1,1′-biphenyl]-3-yl)benzo[d]oxazol-5-yl)methyl)-N-(methylsulfonyl)pyrrolidine-3-carboxamide], for which the IC50 is no more than 10 nM. The value for `Cc1c(-c2nc3cc(CN4CC(C(=O)O)C4)cc(C#N)c3o2)cccc1-c1cccc(-n2cc3c(n2)CN(C(C)C)CC3)c1Cl` [Example 239, 1-((2-(2′-chloro-3′-(6-isopropyl-4,5,6,7-tetrahydro-2H-pyrazolo[3,4-c]pyridin-2-yl)-2-methylbiphenyl-3-yl)-7-cyanobenzo[d]oxazol-5-yl)methyl)azetidine-3-carboxylic acid] was no more than 10 nM; that for `Cc1c(-c2nc3cc(CN4CC[C@@H](O)C4)cc(C#N)c3o2)cccc1-c1cccc(NC(=O)c2nc3c(n2C)CCN(Cc2ccc(B(O)O)cc2)C3)c1Cl` [Example 240, (R)-4-((2-(2-chloro-3′-(7-cyano-5-((3-hydroxypyrrolidin-1-yl)methyl)benzo[d]oxazol-2-yl)-2′-methylbiphenyl-3-ylcarbamoyl)-1-methyl-6,7-dihydro-1H-imidazo[4,5-c]pyridin-5(4H)-yl)methyl)phenylboronic acid] was no more than 10 nM. The same measure for `CCN(C)CC(=O)N1Cc2nc(-c3cccc(-c4cccc(-c5nc6cc(CN7CC[C@@H](C(=O)O)C7)cc(C#N)c6o5)c4C)c3C)oc2C1` [Example 241, (R)-1-((7-cyano-2-(3′-(5-(N-ethyl-N-methylglycyl)-5,6-dihydro-4H-pyrrolo[3,4-d]oxazol-2-yl)-2,2′-dimethyl-[1,1′-biphenyl]-3-yl)benzo[d]oxazol-5-yl)methyl)pyrrolidine-3-carboxylic acid]: no more than 10 nM; for `CCN(C)CC(=O)N1Cc2nc(-c3cccc(-c4cccc(-c5nc6cc(CN7CC8(C(=O)O)CC7C8)cc(C#N)c6o5)c4C)c3C)oc2C1` [Example 242, 2-((7-cyano-2-(3′-(5-(N-ethyl-N-methylglycyl)-5,6-dihydro-4H-pyrrolo[3,4-d]oxazol-2-yl)-2,2′-dimethyl-[1,1′-biphenyl]-3-yl)benzo[d]oxazol-5-yl)methyl)-2-azabicyclo[2.1.1]hexane-4-carboxylic acid]: no more than 10 nM.
